How the values were obtained:
[1] = Cmax in ICR mouse at 20 mg/kg, po by LC-MS/MS analysis; assay type: ADME, organism-based; set-up: dose 20 mg/kg, route po; settings: in vivo
[2] = Half life in ICR mouse at 20 mg/kg, po by LC-MS/MS analysis; assay type: ADME, organism-based; settings: in vivo; for half-life: ICR; for t1/2: po, 20 mg/kg
[3] = Tmax in ICR mouse at 20 mg/kg, po by LC-MS/MS analysis; assay type: ADME, organism-based; settings: in vivo
[4] = Inhibition of SOS1/KRAS G13D mutant protein-protein interaction in human DLD-1 cells assessed as ERK1/2 phosphorylation measured after 1 hr by homogeneous time-resolved fluorescence (HTRF) method; assay type: cell-based; settings: DLD-1, 1 h
[5] = MRT in ICR mouse at 20 mg/kg, po by LC-MS/MS analysis; assay type: ADME, organism-based; settings: in vivo
[6] = Elimination rate constant in ICR mouse at 20 mg/kg, po by LC-MS/MS analysis; assay type: ADME, organism-based; settings: in vivo; for k el: ICR; for Kel: po, 20 mg/kg
[7] = AUC in ICR mouse at 20 mg/kg, po by LC-MS/MS analysis; assay type: ADME, organism-based; set-up: dose 20 mg/kg, route po; settings: in vivo
[8] = Toxicity in BALB/c mouse xenografted with human MIA PaCa-2 cells harboring KRAS G12C mutant assessed as change in body weight at 50 mg/kg, po once a day measured for 16 days; assay type: organism-based; settings: in vivo, 384 h, time 16 day
[9] = Toxicity in BALB/c mouse xenografted with human MIA PaCa-2 cells harboring KRAS G12C mutant assessed as mortality at 50 mg/kg, po once a day measured for 16 days; assay type: organism-based; settings: in vivo, 384 h, time 16 day
MIA PaCa-2 = assay: In vivo antitumor activity against human MIA PaCa-2 cells harboring KRAS G12C mutant xenografted in BALB/c mouse assessed as reduction in tumor volume at 50 mg/kg, po once a day measured for 16 days relative to control; assay type: functional; set-up: scale not given: the % may be the effect or the level left; settings: time 16 day
SOS1-KRAS = SOS1-KRAS (Homo sapiens, UniProt Q07889); assay: Inhibition of human recombinant SOS1 (residue 564-1049)/KRAS G12C mutant protein-protein interaction at incubated for 25 degC for 60 mins by homogeneous time-resolved fluorescence (HTRF) method
Chain of SOS1-KRAS (Q07889 whole entry, looked up, stated change not applied): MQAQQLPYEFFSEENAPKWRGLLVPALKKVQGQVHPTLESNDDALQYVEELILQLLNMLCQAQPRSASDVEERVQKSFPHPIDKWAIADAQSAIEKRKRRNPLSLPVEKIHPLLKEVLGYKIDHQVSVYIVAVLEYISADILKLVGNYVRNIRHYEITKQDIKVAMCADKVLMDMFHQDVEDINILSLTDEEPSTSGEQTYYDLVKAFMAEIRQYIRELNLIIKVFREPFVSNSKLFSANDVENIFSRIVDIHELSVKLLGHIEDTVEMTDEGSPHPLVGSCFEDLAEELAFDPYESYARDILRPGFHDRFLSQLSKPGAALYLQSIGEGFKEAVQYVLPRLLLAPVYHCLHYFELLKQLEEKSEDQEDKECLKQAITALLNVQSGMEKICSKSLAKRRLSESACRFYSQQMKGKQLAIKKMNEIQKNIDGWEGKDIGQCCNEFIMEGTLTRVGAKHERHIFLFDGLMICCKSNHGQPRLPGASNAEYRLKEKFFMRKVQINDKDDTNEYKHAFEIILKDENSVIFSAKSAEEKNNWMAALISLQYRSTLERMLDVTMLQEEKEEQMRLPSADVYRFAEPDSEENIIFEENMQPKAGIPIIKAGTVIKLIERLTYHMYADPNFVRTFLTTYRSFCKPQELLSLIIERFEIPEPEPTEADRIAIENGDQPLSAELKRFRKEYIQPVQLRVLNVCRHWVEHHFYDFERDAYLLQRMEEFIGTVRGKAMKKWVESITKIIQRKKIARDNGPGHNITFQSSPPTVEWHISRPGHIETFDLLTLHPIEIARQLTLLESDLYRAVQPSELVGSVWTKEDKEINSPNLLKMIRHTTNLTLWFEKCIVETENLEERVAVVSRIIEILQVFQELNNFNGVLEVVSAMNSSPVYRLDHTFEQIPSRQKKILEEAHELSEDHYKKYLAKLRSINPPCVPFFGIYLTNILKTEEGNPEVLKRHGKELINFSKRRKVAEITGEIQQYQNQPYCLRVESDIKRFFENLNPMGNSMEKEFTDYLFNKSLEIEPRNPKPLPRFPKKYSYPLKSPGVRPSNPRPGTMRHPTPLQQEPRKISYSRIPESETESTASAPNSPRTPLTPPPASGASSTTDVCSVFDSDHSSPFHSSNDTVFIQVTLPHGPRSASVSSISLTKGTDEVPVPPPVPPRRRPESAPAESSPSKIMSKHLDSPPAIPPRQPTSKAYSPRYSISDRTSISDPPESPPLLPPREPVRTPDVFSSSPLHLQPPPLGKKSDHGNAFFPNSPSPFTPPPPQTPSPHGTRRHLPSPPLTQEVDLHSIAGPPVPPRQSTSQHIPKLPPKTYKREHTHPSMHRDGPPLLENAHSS

Compound | Cmax [1] [ng/mL] | half-life [2] [h] | Tmax [3] [h] | IC50 [4] [nM] | MRT [5] [h] | k el [6] [s⁻¹] | AUC [7] [ng·h/mL] | also measured
COCC1(C(=O)N2CCN3c4cc5c(N[C@H](C)c6cccc(C(F)F)c6F)nc(C)nc5cc4OC[C@H]3C2)CC1 | 161 | 2.28 | 0.25 | 0.9 | 2.62 | 8.33e-05 | 398 | 
Cc1nc(N[C@H](C)c2cccc(C(F)F)c2F)c2cc3c(cc2n1)OC[C@H]1CN(CC(=O)N(C)C)CCN31 |  |  |  | 295 |  |  |  | 
COCCC(=O)N1CCN2c3cc4c(N[C@H](C)c5cccc(C(F)F)c5F)nc(C)nc4cc3OC[C@H]2C1 | 674 | 3.85 | 2.92 | 9.5 | 3.45 | 5e-05 | 3340 | 
Cc1nc(N[C@H](C)c2cccc(C(F)F)c2F)c2cc3c(cc2n1)OC[C@H]1CN(C(=O)C2CCN(C)CC2)CCN31 |  |  |  | 98 |  |  |  | 
Cc1nc(N[C@H](C)c2cccc(C(F)F)c2F)c2cc3c(cc2n1)OC[C@H]1CN(C(=O)NC2CC2)CCN31 | 557 |  | 6 | 8 | 4.36 |  | 3490 | Activity [8]: Non-Toxic; Activity [9]: Non-Toxic; t1/2 [2]: 12.6 h; Activity (MIA PaCa-2): 47%; Kel [6]: 0.14 h⁻¹
CC(=O)N1CCN2c3cc4c(N[C@H](C)c5cccc(C(F)F)c5F)nc(C)nc4cc3OCC2C1 (some centres undefined) |  |  |  | 19 |  |  |  | IC50 (SOS1-KRAS): 8.8 nM
Cc1nc(N[C@H](C)c2cccc(C(F)F)c2F)c2cc3c(cc2n1)OC[C@H]1CN(C2CCOCC2)CCN31 |  |  |  | 57 |  |  |  | 
COCC(=O)N1CCN2c3cc4c(N[C@H](C)c5cccc(C(F)F)c5F)nc(C)nc4cc3OC[C@H]2C1 | 180 | 5.86 | 0.83 | 10 | 3.43 | 3.06e-05 | 860 | 
Cc1nc(N[C@H](C)c2cc(N)cc(C(F)(F)F)c2)c2cc3c(cc2n1)OCCO3 |  |  |  | 690 |  |  |  | IC50 (SOS1-KRAS): 904 nM
Cc1nc(N[C@H](C)c2cccc(C(F)F)c2F)c2cc3c(cc2n1)OC[C@H]1CN(C(=O)N(C)C)CCN31 | 621 | 12.3 | 3 | 2.9 | 4.2 | 2.5e-05 | 3980 | 
Cc1nc(N[C@H](C)c2cccc(C(F)F)c2F)c2cc3c(cc2n1)OC[C@H]1CN(C2CN(C)C2)CCN31 |  |  |  | 166 |  |  |  | 
CCNC(=O)N1CCN2c3cc4c(N[C@H](C)c5cccc(C(F)F)c5F)nc(C)nc4cc3OC[C@H]2C1 |  |  |  | 32 |  |  |  | 
Cc1nc(N[C@H](C)c2cccc(C(F)F)c2F)c2cc3c(cc2n1)OC[C@H]1CN(C(=O)c2ccnn2C)CCN31 |  |  |  | 691 |  |  |  | 
Cc1nc(N[C@H](C)c2cccc(C(F)F)c2F)c2cc3c(cc2n1)OC[C@H]1CN(C(=O)C2(C#N)CC2)CCN31 | 600 | 3.87 | 1.33 | 14 | 4.43 | 5e-05 | 4460 | 
COC(=O)N1CCN2c3cc4c(N[C@H](C)c5cccc(C(F)F)c5F)nc(C)nc4cc3OC[C@H]2C1 |  |  |  | 22 |  |  |  | 
CC(=O)N1CCOc2cc3nc(C)nc(N[C@H](C)c4cc(N)cc(C(F)(F)F)c4)c3cc21 |  |  |  | 780 |  |  |  | IC50 (SOS1-KRAS): 122 nM
CNC(=O)N1CCN2c3cc4c(N[C@H](C)c5cccc(C(F)F)c5F)nc(C)nc4cc3OC[C@H]2C1 | 751 |  | 8 | 15 | 5.62 |  | 2830 | t1/2 [2]: 14.5 h; Kel [6]: 0.26 h⁻¹
Cc1nc(N[C@H](C)c2cccc(C(F)F)c2F)c2cc3c(cc2n1)OC[C@H]1CN(C(=O)[C@@H]2CCOC2)CCN31 | 47 | 18 | 8 | 21 | 9.65 | 8.33e-06 | 780 | 
CC(=O)N1CCN2c3cc4c(N[C@H](C)c5cccc(C(F)F)c5F)nc(C)nc4cc3OC[C@@H]2C1 |  |  |  | 38 |  |  |  | IC50 (SOS1-KRAS): 13.8 nM
Cc1nc(N[C@H](C)c2cccc(C(F)F)c2F)c2cc3c(cc2n1)OC[C@H]1CN(C(=O)C2(F)CC2)CCN31 | 582 | 2.34 | 1.5 | 1.7 | 2.59 | 8.33e-05 | 2100 | 
CC(=O)N1CCN2c3cc4c(N[C@H](C)c5cc(N)cc(C(F)(F)F)c5)nc(C)nc4cc3OC[C@@H]2C1 |  |  |  | 48 |  |  |  | IC50 (SOS1-KRAS): 12.8 nM
COCCN1CCN2c3cc4c(N[C@H](C)c5cccc(C(F)F)c5F)nc(C)nc4cc3OC[C@H]2C1 |  |  |  | 97 |  |  |  | 

From ChEMBL document CHEMBL5236589, “Design and Structural Optimization of Orally Bioavailable SOS1 Inhibitors for the Treatment of KRAS-Driven Carcinoma” (J Med Chem, 2022)
